This note sets out measurements from patent publication US6057314A, “Low molecular weight bicyclic thrombin inhibitors” (Biochem Pharma Inc., priority 1997, dated 2000).

Several values for one entry are separate records, joined by “and”; a condition that tells them apart may be missing. Identical values can stand only once. Like-named read-outs stand apart in the source and are kept apart here.

Assay [1] concerns the target T1, human thrombin (Homo sapiens, UniProt P00734). Description: Inhibition of amidolytic activity of human thrombin (Ki, fluorogenic substrate Tos-Gly-Pro-Arg-AMC). In kind it is biochemical. As for the experimental part:
In an assay to determine the inhibitory dissociation constant, Ki, for a given compound, a chromogenic or fluorogenic substrate of thrombin would be added to a solution containing a test compound and thrombin; the resulting catalytic activity of the enzyme would be spectrophotometrically determined. This type of assay is well known to those skilled in the art.
Determination of K1 Values for Heterocyclics
The steady-state velocity was then measured for a few minutes. The compounds of this invention were also pre-incubated with thrombin for 20 minutes at room temperature before adding the substrate.

The subject of a further assay is carotid artery in rats. As to the kind of experiment: FeCl3 induced carotid arterial injury model (arterial thrombosis) in rats, time to occlusion. In kind it is in vivo, rat (Sprague-Dawley). The settings on record: Table 2. As for the experimental part:
Arterial Thrombosis Model
FeCl3 Induced Carotid Arterial Injury Model
Animals were laid on a 37° C. heating pad. The carotid artery was exposed through a midline cervical incision. Careful blunt dissection was used to isolate the vessel from the carotid sheath. […] A temperature probe (Physitemp*MT23/3) was placed between one of the pieces of tubing and the artery. Injury was induced by topical application on the carotid artery above the temperature probe of a small disc (3 mm dia.) of Whatman* No. 1 filter paper previously dipped in a 35% solution of FeCl3 […]. The vessel temperature was monitored for 60 minutes after application of FeCl3 as an indication of blood flow.
The time between the FeCl3 application and the time at which the vessel temperature decreased abruptly (>2.4° C.) was recorded as the time to occlusion of the vessel. Inhibitor compounds were given as an iv bolus (mg/kg) followed immediately by an iv infusion (μg/kg/min. via femoral vein). The dose of inhibitor needed to double the time to occlusion in comparison to control animals in which injury was induced in the absence of inhibitor was determined.

For assay [2], the target named is T1, human thrombin. As to the kind of experiment: dTT assay (fibrin clotting assay, human thrombin and bovine fibrinogen). In kind it is biochemical. The following applies: Table 1; concentration required to double the clotting time; read-out: dTT IC50. An excerpt:
The clotting time was plotted against the inhibitor concentrations and the IC50 was estimated as the inhibitor concentration required to double the clotting time relative to the control.

Where [3] appears, read: ivb + inf 0.75-50 (iv bolus mg/kg, infusion μg/kg/min).
Setting [4] is: Table 1, read-out: Ki (inhibitory dissociation constant for human thrombin).

`N=C(N)NCCCC(NC(=O)[C@@H]1CS[C@@H]2CC[C@@H](CCCC3CCCCC3)C(=O)N21)C(=O)c1nccs1` (single isomer, unassigned) [Compound 0265a]: the Ki (usually the dissociation constant of the complex between target and ligand, obtained from inhibition or displacement) at human thrombin [1] (Table 2, read-out: Ki) was 4 nM. Also, the “M.O.T (min)+/-sem” value in the assay on carotid artery in rats (setting [3]) is 21.5 ± 10 min.

Turning to `N=C(N)NCCCC(NC(=O)[C@@H]1CS[C@@H]2CC[C@@H](CCCC3CCCCC3)C(=O)N21)C(=O)c1nccs1` (single isomer, unassigned) [Compound 0265b], the Ki at human thrombin [1] (Table 2, read-out: Ki) was determined as 18 nM. The “M.O.T (min)+/-sem” value with carotid artery in rats (setting [3]) amounted to 14.83 ± 2.3 min.

With `N=C(N)NCCCC(NC(=O)C1CSC2CCC(N3C(=O)c4ccccc4C3=O)C(=O)N21)C(=O)c1nccs1` (single isomer, unassigned) [Compound 0295a], on human thrombin [1] (Table 2, read-out: Ki), the Ki was determined as 1500 nM. In addition, the “M.O.T (min)+/-sem” value in the assay on carotid artery in rats (setting [3]) came to 20 ± 1 min.

For `N=C(N)NCCCC(NC(=O)C1CSC2CCC(N3C(=O)c4ccccc4C3=O)C(=O)N21)C(=O)c1nccs1` (single isomer, unassigned) [Compound 0295b], in the assay with carotid artery in rats (setting [3]), the “M.O.T (min)+/-sem” value was determined as 19 ± 2.7 min.

`N=C(N)NCCCC(NC(=O)[C@@H]1CSC2CC[C@H](NC(=O)CCc3ccccc3)C(=O)N21)C(=O)c1nccs1` (single isomer, unassigned) [Compound 0305a]: the Ki on human thrombin [1] (Table 2, read-out: Ki) was 220 nM.

For the compound `N=C(N)NCCCC(NC(=O)[C@@H]1CSC2CC[C@H](NC(=O)CCc3ccccc3)C(=O)N21)C(=O)c1nccs1` (single isomer, unassigned) [Compound 0305b], the Ki on human thrombin [1] (Table 2, read-out: Ki) is 12000 nM.

Take `N=C(N)NCCCC(NC(=O)[C@@H]1CSC[C@H]2CC[C@@H](Cc3ccccc3)C(=O)N21)C(=O)c1nccs1` (single isomer, unassigned) [Compound 0925a]: the Ki on human thrombin [1] (Table 2, read-out: Ki) turned out to be 7 nM. In addition, the “M.O.T (min)+/-sem” value in the assay with carotid artery in rats (setting [3]) was determined as 20.3 ± 3.5 min.

For `N=C(N)NCCCC(NC(=O)[C@@H]1CSC[C@H]2CC[C@@H](Cc3ccccc3)C(=O)N21)C(=O)c1nccs1` (single isomer, unassigned) [Compound 0925b], the Ki on human thrombin [1] (Table 2, read-out: Ki) was 30 nM.

For the compound `N=C(N)NCCCC(NC(=O)[C@@H]1CSC[C@H]2CC[C@@H](CCc3ccccc3)C(=O)N21)C(=O)c1nccs1` (single isomer, unassigned) [Compound 0940a], the Ki at human thrombin [1] (Table 2, read-out: Ki) was 16 nM. Moreover, the “M.O.T (min)+/-sem” value in the assay with carotid artery in rats (setting [3]) was determined as 15.2 ± 0.82 min.

Turning to `N=C(N)NCCCC(NC(=O)[C@@H]1CSC[C@H]2CC[C@@H](CCc3ccccc3)C(=O)N21)C(=O)c1nccs1` (single isomer, unassigned) [Compound 0940b], the Ki on human thrombin [1] (Table 2, read-out: Ki) is 160 nM.

Take `N=C(N)NCCCC(NC(=O)[C@@H]1CS(=O)(=O)C[C@H]2CC[C@@H](Cc3ccccc3)C(=O)N21)C(=O)c1nccs1` (single isomer, unassigned) [Compound 0950a]: the Ki on human thrombin [1] (Table 2, read-out: Ki) stood at 150 nM.

In the case of `N=C(N)NCCCC(NC(=O)[C@@H]1CS(=O)(=O)C[C@H]2CC[C@@H](Cc3ccccc3)C(=O)N21)C(=O)c1nccs1` (single isomer, unassigned) [Compound 0950b], the Ki on human thrombin [1] (Table 2, read-out: Ki) worked out at 1000 nM.

Consider `N=C(N)NCCCC(NC(=O)C1CSC2CCC(NC(=O)CCc3ccccc3)C(=O)N21)C(=O)c1nccs1` (stereo not shown) [0315a + b], for which the Ki at human thrombin [1] (Table 2, read-out: Ki) came to 45 nM.

As for `N=C(N)NCCCC(NC(=O)[C@@H]1CSCC2CC[C@@H](Cc3ccccc3)C(=O)N21)C(=O)c1nccs1` (stereo partly shown) [0925a + b], the Ki at human thrombin [1] (Table 2, read-out: Ki) is 10 nM. The “M.O.T (min)+/-sem” value with carotid artery in rats (setting [3]) turned out to be 19.6 ± 0.2 min.

For `N=C(N)NCCCC(NC(=O)[C@@H]1CSC2CC[C@@H](CC3CCCCC3)C(=O)N21)C(=O)CCC(=O)N[C@@H](Cc1ccccc1)C(=O)N[C@@H](CCCNC(=N)N)C(N)=O` (stereo partly drawn) [Compound 0090, 6S-cyclohexylmethylhexahydro-5-oxo-5H-thiazolo[3,2-a]pyridine-3R-carboxamido((propylketo)Arg--Phe--Arg--NH2)], the Ki at human thrombin [1] (setting [4]) turned out to be 31 nM. Moreover, the IC50 (commonly the midpoint of a concentration-inhibition curve) at human thrombin [2] amounted to 330 nM.

In the case of `N=C(N)NCCCC(NC(=O)[C@@H]1CSC2CC[C@@H](Cc3ccccc3)C(=O)N21)C(=O)CCC(=O)O` (stereo partly drawn) [Compound 0095, 6S-benzylhexahydro-5-oxo-5H-thiazolo[3,2-a]pyridine-3R-carboxamido((propanoic acid)ketoarginine)], the Ki at human thrombin [1] (setting [4]) was determined as 26000 nM.

As for `N=C(N)NCCCC(NC(=O)[C@@H]1CS[C@H]2CC[C@@H](Cc3ccccc3)C(=O)N21)C(=O)c1nc2ccccc2s1` (stereo partly shown) [Compound 0210, 6-Benzyl-5-oxo-hexahydro-thiazolo[3,2-a]pyridine-3-carboxylic acid[1-(benzothiazole-2-carbonyl)-4-guanidino-butyl]-amide], the Ki on human thrombin [1] (Table 2, read-out: Ki) was determined as 8 nM. Besides, the “M.O.T (min)+/-sem” value in the assay on carotid artery in rats (setting [3]) was 20.13 ± 3.4 min.

For the compound `CC12CCC(CCc3ccccc3)C(=O)N1C(C(=O)NC(CCCNC(=N)N)C(=O)c1nc3ccccc3s1)CS2` (stereo not shown) [Compound 0225, 8a-Methyl-5-oxo-6-phenethyl-hexahydro-thiazolo[3,2-a]pyridine-3-carboxylic acid[1-(benzothiazole-2-carbonyl)-4-guanidino-butyl]-amide], the “M.O.T (min)+/-sem” value in the assay on carotid artery in rats (setting [3]) came out at 23 ± 7 min.

With `C[C@]12CC[C@@H](Cc3ccc4nc(C(F)(F)F)ccc4c3)C(=O)N1[C@H](C(=O)NC(CCCNC(=N)N)C(=O)c1nc3ccccc3s1)CS2` (stereo partly shown) [Compound 0240, 8a-Methyl-5-oxo-6-(2-trifluoromethyl-quinolin-6-ylmethyl)-hexahydro-thiazolo[3,2-a]pyridine-3-carboxylic acid[1-(benzothiazole-2-carbonyl)-4-guanidino-butyl]-amide], the Ki at human thrombin [1] (Table 2, read-out: Ki) is 18 nM. In the assay on carotid artery in rats (setting [3]), the “M.O.T (min)+/-sem” value is 17 ± 2.6 min.

For the compound `N=C(N)NCCCC(NC(=O)[C@@H]1CS[C@@H]2CC[C@@H](Cc3ccccc3)C(=O)N21)C(=O)c1nccs1` (stereo partly shown) [Compound 0245, 6-Benzyl-5-oxo-hexahydro-thiazolo[3,2-a]pyridine-3-carboxylic acid[4-guanidino-1-(thiazole-2-carbonyl)butyl]-amide], the Ki on human thrombin [1] (Table 2, read-out: Ki) was 5 nM and 8 nM. For the same compound, the “M.O.T (min)+/-sem” value came to 27 ± 3 min in the assay on carotid artery in rats (ivb + inf 0.5-30 (iv bolus mg/kg, infusion μg/kg/min)) and 22.6 ± 2.6 min in the assay with carotid artery in rats (setting [3]).

With `Cn1ccnc1C(=O)C(CCCNC(=N)N)NC(=O)[C@@H]1CS[C@@H]2CC[C@@H](Cc3ccccc3)C(=O)N21` (stereo partly shown) [Compound 0255, 6-Benzyl-5-oxo-hexahydro-thiazolo[3,2-a]pyridine-3-carboxylic acid[4-guanidino-1-(1-methyl-1H imidazole-2-carbonyl)butyl]-amide], the Ki at human thrombin [1] (Table 2, read-out: Ki) is 500 nM.

Regarding `CC12CCC(Cc3ccccc3)C(=O)N1C(C(=O)NC(CCCNC(=N)N)C(=O)c1nccs1)CS2` (stereo not shown) [Compound 0260, 6-Benzyl-8a-methyl-5-oxo-hexahydro-thiazolo[3,2-a]pyridine-3-carboxylic acid[4-guanidino-1-(thiazole-2-carbonyl)-butyl]-amide], in the assay on carotid artery in rats (setting [3]), the “M.O.T (min)+/-sem” value was determined as 14.83 ± 0.2 min.

Take `CC12CCC(Cc3ccc4nc(C(F)(F)F)ccc4c3)C(=O)N1C(C(=O)NC(CCCNC(=N)N)C(=O)c1nccs1)CS2` (stereo not shown) [Compound 0285, 8a-Methyl-5-oxo-6-(2-trifluoromethyl-quinolin-6-ylmethyl)-hexahydro-thiazolo[3,2-a]pyridine-3-carboxylic acid[4-guanidino-1-(thiazole-2-carbonyl)-butyl]-amide]: in the assay on carotid artery in rats (setting [3]), the “M.O.T (min)+/-sem” value was found to be 11.33 ± 1.34 min.

Regarding `N=C(N)NCCCC(NC(=O)C1CSC2CCC(NC(=O)CCc3ccccc3)C(=O)N21)C(=O)c1nccs1` (stereo not shown) [Compound 0315b], the Ki on human thrombin [1] (Table 2, read-out: Ki) turned out to be 10 nM. Also, in the assay with carotid artery in rats (setting [3]), the “M.O.T (min)+/-sem” value came out at 30.33 ± 8.4 min.

Take `N=C(N)NCCCC(NC(=O)[C@@H]1CC[C@H]2CN(C(=O)CCc3ccccc3)CC(=O)N21)C(=O)c1nccs1` (stereo partly shown) [Compound 0340, 4-Oxo-2-(3-phenyl-propionyl)-octahydro-pyrrolo[1,2-a]-pyrazine-6-carboxylic acid [4-guanidino-1-(thiazole-2-carbonyl)-butyl]-amide]: the Ki on human thrombin [1] (Table 2, read-out: Ki) came out at 0.6 nM. The “M.O.T (min)+/-sem” value in the assay on carotid artery in rats (ivb + inf 0.25-20 (iv bolus mg/kg, infusion μg/kg/min)) was 36+/-9,6 min.

`Cc1cnc(C(=O)C(CCCNC(=N)N)NC(=O)[C@@H]2CC[C@H]3CN(C(=O)CCc4ccccc4)CC(=O)N32)s1` (stereo partly shown) [Compound 0345, 4-Oxo-2-(3-phenyl-propionyl)-octahydro-pyrrolo[1,2-a]pyrazine-6-carboxylic acid[4-guanidino-1-(5-methyl-thiazole-2-carbonyl)-butyl]-amide]: the Ki on human thrombin [1] (Table 2, read-out: Ki) came to 2 nM. The “M.O.T (min)+/-sem” value with carotid artery in rats (setting [3]) worked out at 50 ± 5.86 min.

As to `N=C(N)NCCCC(NC(=O)[C@@H]1CSCC2CCCC(=O)N21)C(=O)c1nccs1` (stereo partly shown) [Compound 0915, 6-Oxo-octahydro-pyrido[2,1-c][1,4]thiazine-4-carboxylic acid[4-guanidino-1-(thiazole-2-carbonyl)-butyl]-amide], the Ki at human thrombin [1] (Table 2, read-out: Ki) is 1600 nM. Further, the “M.O.T (min)+/-sem” value in the assay on carotid artery in rats (setting [3]) is listed as 15+/-1,3 min.

Take `N=C(N)NCCCC(NC(=O)[C@@H]1CSCC2CC[C@H](Cc3ccccc3)C(=O)N21)C(=O)c1nccs1` (stereo partly shown) [Compound 0935, 7-Benzyl-6-oxo-octahydro-pyrido[2,1-c][1,4]thiazine-4-carboxylic acid[4-guanidino-1-(thiazole-2-carbonyl)butyl]-amide]: on human thrombin [1] (Table 2, read-out: Ki), the Ki was 120 nM.
